The values below are quoted from earlier work in patent US8759403B2, “Curcuminoids and its metabolites for the application in allergic ocular/nasal conditions” (Laila Pharmaceutical Pvt. Ltd., priority 2009, dated 2014).

The test system of one data set is murine model of allergy. Particulars: mouse, in vivo.
Another data set concerns guinea pigs. Particulars: 20 mg/kg body weight.

For the compound `COc1cc(/C=C/C(=O)CC(=O)/C=C/c2ccc(O)c(OC)c2)ccc1O` [curcumin], in the data set on mast cells, the “histamine release from mast cells” value is reported as “inhibitory effect”. Further, in the data set with murine model of allergy, the “allergic response in treated animals” value was “marked inhibition of allergic response”. The airway hyper reactivity entry in the data set on guinea pigs (p<0.0043) is recorded as “significantly inhibits”. Further, the OVA-induced airway constriction entry with guinea pigs (p<0.0399) is reported as “significantly inhibits”.
